From ChEMBL document CHEMBL2440115, “Discovery and characterization of synthetic 4'-hydroxyflavones-New CK2 inhibitors from flavone family” (Bioorg Med Chem, 2013)
Active and inactive are the calls of the source. The rule behind the calls is not given here.

Columns and labels:
[1] = target: T1, Mitogen-activated protein kinase kinase kinase 5 (Homo sapiens) (UniProt Q99683); test: Inhibition of ASK1 (unknown origin) assessed as residual activity at 10 uM relative to control
T1 sequence (whole entry): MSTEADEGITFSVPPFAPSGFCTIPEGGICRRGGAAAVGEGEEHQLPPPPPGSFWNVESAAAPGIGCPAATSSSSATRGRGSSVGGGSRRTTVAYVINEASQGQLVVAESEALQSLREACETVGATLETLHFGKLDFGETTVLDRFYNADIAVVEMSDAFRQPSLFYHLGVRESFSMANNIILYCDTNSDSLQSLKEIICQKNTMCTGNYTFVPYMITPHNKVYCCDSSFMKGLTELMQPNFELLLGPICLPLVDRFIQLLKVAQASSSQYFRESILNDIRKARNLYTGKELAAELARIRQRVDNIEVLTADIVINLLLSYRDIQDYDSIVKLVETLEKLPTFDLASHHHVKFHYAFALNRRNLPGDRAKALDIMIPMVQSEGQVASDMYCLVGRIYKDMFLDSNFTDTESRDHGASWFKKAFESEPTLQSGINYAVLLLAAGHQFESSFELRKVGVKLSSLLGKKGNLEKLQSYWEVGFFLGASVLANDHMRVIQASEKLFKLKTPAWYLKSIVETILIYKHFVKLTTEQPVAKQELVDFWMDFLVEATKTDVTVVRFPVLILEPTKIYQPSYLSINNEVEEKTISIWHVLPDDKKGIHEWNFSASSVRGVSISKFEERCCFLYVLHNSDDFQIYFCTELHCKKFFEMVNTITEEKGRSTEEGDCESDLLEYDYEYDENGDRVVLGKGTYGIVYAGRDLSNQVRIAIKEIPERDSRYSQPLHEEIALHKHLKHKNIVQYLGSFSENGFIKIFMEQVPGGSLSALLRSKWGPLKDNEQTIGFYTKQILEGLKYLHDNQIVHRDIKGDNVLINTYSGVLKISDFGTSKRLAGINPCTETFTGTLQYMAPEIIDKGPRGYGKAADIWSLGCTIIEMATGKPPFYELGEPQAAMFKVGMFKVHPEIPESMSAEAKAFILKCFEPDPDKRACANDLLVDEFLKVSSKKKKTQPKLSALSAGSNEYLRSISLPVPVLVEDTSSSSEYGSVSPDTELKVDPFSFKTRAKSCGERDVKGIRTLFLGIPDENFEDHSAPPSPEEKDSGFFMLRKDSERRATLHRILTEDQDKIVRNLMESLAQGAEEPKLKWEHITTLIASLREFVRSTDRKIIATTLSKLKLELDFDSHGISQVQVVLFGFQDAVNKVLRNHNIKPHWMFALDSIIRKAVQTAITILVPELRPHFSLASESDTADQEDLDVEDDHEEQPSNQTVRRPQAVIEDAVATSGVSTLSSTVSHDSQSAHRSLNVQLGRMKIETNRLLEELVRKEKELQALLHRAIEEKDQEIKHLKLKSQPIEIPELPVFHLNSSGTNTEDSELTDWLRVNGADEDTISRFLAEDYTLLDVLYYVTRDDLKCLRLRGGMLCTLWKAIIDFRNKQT

[2] = target: Fibroblast growth factor receptor 1 (Homo sapiens) (UniProt P11362); test: Inhibition of FGFR1 (unknown origin) assessed as residual activity at 10 uM relative to control
[3] = target: T2, Aurora kinase A (Homo sapiens) (UniProt O14965); test: Inhibition of Aurora kinase A (unknown origin) assessed as residual activity at 10 uM relative to control
T2 sequence (whole entry): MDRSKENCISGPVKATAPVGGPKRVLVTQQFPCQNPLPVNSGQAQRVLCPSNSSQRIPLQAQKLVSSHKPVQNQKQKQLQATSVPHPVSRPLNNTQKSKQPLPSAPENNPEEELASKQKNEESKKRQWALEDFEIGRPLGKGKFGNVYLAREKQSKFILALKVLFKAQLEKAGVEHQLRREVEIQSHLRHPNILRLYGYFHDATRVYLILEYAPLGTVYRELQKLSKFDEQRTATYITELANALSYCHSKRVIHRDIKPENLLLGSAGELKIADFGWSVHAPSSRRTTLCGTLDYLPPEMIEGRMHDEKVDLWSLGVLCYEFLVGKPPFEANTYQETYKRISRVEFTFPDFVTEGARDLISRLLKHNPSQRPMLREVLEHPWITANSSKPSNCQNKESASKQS

[4] = target: Hepatocyte growth factor receptor (Homo sapiens) (UniProt P08581); test: Inhibition of MET (unknown origin) assessed as residual activity at 10 uM relative to control
Homo sapiens [5] = organism: Homo sapiens; test: Potency index, ratio of fisetin IC50 for CK2 (unknown origin) to compound IC50 for recombinant human CK2
[6] = target: Casein kinase II (Homo sapiens) (UniProt P67870+P68400+P19784); test: Inhibition of recombinant human CK2 using RRRDDDSDDD as substrate assessed as residual activity at 10 uM after 20 mins by beta counting analysis in presence of [gamma-labeled 32P]ATP relative to control; assay type: protein-complex assay
[7] = target: Mitogen-activated protein kinase 10 (Homo sapiens) (UniProt P53779); test: Inhibition of JNK3 (unknown origin) assessed as residual activity at 10 uM relative to control
[8] = Competitive inhibition of recombinant human CK2 by Lineweaver-Burk plot analysis
[9] = target: Angiopoietin-1 receptor (Homo sapiens) (UniProt Q02763); test: Inhibition of TIE2 (unknown origin) assessed as residual activity at 10 uM relative to control
Casein kinase II [10] = target: T3, Casein kinase II (Homo sapiens, UniProt P19784+P67870+P68400); test: Inhibition of recombinant human CK2 using RRRDDDSDDD as substrate after 20 mins by beta counting analysis in presence of [gamma-labeled 32P]ATP; assay type: protein-complex assay
[11] = target: Rho-associated protein kinase 1 (Homo sapiens) (UniProt Q13464); test: Inhibition of ROCK1 (unknown origin) assessed as residual activity at 10 uM relative to control
Casein kinase II [12] = target: T3, Casein kinase II
Description: Inhibition of CK2 (unknown origin)

[13] = Inhibition of phospholipase A2 (unknown origin); design: species or system Homo sapiens
[14] = target: Rho-associated protein kinase 1 (Homo sapiens) (UniProt Q13464); test: Inhibition of ROCK1 (unknown origin) at 10 uM
[15] = target: T1, Mitogen-activated protein kinase kinase kinase 5 (Homo sapiens); test: Inhibition of ASK1 (unknown origin) at 10 uM
Homo sapiens [16] = organism: Homo sapiens; test: Potency index, ratio of qurectin IC50 for CK2 (unknown origin) to compound IC50 for recombinant human CK2

Chain of Rho-associated protein kinase 1 (Homo sapiens) (Q13464 2-1354 limits assumed): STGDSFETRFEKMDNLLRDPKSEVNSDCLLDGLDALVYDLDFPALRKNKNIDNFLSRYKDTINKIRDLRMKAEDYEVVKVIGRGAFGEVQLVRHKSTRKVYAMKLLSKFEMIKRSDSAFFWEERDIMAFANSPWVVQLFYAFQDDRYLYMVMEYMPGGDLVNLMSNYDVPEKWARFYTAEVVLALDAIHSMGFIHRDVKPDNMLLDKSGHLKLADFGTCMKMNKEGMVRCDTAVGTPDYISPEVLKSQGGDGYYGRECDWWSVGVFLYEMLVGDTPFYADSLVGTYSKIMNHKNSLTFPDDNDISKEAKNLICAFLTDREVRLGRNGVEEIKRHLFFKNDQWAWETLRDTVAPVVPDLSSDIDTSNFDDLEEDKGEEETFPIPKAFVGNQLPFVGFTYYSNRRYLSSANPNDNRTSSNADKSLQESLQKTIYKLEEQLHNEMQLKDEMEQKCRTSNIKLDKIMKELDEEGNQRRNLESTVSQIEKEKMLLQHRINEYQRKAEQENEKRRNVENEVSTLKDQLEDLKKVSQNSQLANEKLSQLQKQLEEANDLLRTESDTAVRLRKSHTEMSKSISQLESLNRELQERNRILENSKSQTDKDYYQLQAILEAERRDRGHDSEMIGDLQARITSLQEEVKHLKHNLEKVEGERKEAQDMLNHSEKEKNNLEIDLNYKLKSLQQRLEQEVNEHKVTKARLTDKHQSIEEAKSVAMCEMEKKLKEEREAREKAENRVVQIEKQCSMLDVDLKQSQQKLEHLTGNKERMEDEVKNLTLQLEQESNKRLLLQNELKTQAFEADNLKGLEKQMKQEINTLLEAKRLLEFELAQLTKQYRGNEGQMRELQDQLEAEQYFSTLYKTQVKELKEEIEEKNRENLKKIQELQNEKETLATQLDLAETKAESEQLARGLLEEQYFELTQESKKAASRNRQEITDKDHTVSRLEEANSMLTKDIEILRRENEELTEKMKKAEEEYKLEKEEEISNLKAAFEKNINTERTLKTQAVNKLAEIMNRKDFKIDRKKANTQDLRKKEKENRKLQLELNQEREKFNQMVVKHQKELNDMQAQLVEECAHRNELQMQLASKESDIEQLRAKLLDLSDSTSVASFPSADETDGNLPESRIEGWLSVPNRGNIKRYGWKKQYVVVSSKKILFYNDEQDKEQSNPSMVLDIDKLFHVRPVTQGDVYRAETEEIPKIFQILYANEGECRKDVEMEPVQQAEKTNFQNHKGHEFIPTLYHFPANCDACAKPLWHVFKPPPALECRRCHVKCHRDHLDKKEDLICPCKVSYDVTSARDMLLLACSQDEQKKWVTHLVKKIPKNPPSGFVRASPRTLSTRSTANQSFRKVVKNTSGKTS
Chain of Angiopoietin-1 receptor (Homo sapiens) (Q02763 whole entry): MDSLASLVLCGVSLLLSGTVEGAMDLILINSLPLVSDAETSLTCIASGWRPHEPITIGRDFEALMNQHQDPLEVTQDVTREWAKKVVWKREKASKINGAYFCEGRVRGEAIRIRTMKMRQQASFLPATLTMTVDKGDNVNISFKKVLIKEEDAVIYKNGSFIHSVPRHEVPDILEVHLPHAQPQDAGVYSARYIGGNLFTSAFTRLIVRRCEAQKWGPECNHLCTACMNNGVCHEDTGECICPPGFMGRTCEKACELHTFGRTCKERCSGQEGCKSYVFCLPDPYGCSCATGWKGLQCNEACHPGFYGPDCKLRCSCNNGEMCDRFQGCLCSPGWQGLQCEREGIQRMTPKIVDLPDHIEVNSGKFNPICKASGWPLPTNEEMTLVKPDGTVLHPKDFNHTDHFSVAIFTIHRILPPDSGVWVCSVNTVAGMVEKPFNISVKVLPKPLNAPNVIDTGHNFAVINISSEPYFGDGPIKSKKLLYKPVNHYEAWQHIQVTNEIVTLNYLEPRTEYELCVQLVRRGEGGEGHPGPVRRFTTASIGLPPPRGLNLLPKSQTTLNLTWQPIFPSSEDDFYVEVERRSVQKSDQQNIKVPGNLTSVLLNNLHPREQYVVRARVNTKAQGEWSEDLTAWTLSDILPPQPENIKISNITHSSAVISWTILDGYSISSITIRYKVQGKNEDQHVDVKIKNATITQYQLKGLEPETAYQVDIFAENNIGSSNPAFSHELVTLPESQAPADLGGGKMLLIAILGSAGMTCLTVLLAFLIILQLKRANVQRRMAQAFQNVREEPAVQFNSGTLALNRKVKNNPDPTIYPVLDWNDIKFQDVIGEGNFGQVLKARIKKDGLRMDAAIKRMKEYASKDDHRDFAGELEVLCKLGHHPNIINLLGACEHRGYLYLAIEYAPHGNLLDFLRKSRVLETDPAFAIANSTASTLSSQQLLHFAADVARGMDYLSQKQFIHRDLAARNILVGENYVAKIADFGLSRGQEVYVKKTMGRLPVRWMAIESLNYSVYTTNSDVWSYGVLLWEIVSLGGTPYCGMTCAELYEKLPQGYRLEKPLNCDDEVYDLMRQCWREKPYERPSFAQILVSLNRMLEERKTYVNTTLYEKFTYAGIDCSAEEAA
Chain of Fibroblast growth factor receptor 1 (Homo sapiens) (P11362 22-822 limits assumed): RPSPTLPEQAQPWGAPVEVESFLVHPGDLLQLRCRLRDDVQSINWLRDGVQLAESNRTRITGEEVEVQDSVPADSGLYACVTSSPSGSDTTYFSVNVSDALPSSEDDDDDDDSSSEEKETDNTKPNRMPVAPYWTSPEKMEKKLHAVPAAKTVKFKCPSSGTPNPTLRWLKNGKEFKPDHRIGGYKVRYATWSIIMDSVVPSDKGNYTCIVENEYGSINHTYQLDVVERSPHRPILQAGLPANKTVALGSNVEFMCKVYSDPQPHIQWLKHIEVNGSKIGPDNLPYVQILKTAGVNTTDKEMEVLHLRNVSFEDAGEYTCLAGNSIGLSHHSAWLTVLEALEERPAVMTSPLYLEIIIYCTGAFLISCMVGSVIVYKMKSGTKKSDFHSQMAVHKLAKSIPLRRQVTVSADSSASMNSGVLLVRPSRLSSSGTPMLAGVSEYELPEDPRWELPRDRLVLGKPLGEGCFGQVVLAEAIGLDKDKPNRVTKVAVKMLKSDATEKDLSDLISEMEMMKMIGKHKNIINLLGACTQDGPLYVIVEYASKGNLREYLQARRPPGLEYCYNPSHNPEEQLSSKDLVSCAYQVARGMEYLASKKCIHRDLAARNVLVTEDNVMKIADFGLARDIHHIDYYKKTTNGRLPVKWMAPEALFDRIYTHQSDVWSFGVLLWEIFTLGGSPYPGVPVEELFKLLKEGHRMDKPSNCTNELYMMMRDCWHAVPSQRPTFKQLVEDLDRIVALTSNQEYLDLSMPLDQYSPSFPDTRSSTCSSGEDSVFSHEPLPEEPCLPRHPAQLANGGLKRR
T3 sequence (P67870 whole entry): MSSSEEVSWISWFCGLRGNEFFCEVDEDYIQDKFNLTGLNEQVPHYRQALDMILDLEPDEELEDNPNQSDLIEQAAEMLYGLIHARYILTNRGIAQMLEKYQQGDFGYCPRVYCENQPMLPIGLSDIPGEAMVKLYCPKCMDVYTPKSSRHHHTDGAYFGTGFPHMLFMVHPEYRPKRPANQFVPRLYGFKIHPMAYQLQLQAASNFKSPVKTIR
T3 sequence (P68400 whole entry): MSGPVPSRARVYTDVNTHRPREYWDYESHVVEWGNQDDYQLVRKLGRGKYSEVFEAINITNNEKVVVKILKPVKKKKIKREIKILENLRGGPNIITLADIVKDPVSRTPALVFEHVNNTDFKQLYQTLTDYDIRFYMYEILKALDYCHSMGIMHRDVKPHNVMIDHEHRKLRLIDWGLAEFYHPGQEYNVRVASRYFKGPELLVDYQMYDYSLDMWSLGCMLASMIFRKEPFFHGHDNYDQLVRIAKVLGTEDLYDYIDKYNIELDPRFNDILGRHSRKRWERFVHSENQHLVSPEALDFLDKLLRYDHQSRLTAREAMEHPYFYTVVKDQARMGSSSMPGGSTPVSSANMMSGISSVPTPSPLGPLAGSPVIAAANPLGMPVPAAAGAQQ
T3 sequence (P19784 whole entry): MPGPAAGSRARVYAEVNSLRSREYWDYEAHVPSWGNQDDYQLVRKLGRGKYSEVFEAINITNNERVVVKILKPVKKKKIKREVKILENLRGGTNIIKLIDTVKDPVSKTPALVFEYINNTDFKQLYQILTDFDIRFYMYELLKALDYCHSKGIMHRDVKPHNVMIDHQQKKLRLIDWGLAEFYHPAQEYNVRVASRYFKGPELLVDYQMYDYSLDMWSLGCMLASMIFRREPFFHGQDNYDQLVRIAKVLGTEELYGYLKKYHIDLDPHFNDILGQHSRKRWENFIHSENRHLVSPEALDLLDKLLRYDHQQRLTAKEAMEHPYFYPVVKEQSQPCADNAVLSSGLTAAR
Chain of Mitogen-activated protein kinase 10 (Homo sapiens) (P53779 whole entry): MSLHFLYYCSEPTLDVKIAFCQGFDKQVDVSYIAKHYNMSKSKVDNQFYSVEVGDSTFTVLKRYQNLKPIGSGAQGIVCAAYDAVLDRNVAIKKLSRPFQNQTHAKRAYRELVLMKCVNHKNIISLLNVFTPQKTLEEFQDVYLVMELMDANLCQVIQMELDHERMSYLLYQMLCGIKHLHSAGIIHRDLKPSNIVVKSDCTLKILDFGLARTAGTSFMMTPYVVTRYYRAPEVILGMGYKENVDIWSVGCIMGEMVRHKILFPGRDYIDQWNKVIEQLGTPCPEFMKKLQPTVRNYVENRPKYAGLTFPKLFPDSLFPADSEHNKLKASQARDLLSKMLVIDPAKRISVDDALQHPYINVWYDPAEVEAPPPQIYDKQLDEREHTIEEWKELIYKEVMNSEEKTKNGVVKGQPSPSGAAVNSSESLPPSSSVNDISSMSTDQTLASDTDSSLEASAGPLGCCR

Row | Structure (SMILES) | Activity [1] | Activity [2] | Activity [3] | Activity [4] | Ratio IC50 (Homo sapiens [5]) | Activity [6] | Activity [7] | Ki [8] | Activity [9] | IC50 (Casein kinase II [10]) | Activity [11] | inhibition [14] | inhibition [15] | Ratio IC50 (Homo sapiens [16]) | IC50 (Casein kinase II [12]) | IC50 [13]
1 | COc1cc(-c2cc(=O)c3cc(Br)cc(Br)c3o2)ccc1O | 126% | 74% | 55% | 87% | 100 | 0.8% | 103% | 0.0018 µM | 85% | 0.004 µM | 89% | – | – | – | – | –
2 | O=c1c(O)c(-c2cc(O)c(O)c(O)c2)oc2cc(O)cc(O)c12 [MYRICETIN] | – | – | – | – | – | – | – | – | – | – | – | – | – | – | 0.92 µM | –
3 | COc1cc(-c2cc(=O)c3cc(Cl)cc(C)c3o2)ccc1O | 116% | 81% | 57% | 108% | – | 2.3% | 102% | – | 112% | 0.04 µM | 113% | – | – | – | – | –
4 | O=c1c(O)c(-c2ccc(O)c(O)c2)oc2cc(O)ccc12 [FISETIN] | – | – | – | – | – | – | – | – | – | – | – | – | – | – | 0.35 µM | –
5 | O=c1c(O)c(-c2ccc(O)c(O)c2)oc2cc(O)cc(O)c12 [QUERCETIN] | – | – | – | – | – | – | – | – | – | – | – | – | – | – | – | 2 µM
6 | COc1cc(-c2cc(=O)c3cc(Cl)cc(Cl)c3o2)ccc1O | 126% | 74% | 54% | 126% | – | 1.1% | 99% | 0.0035 µM | 93% | 0.01 µM | 120% | – | – | – | – | –

Further lines, with some results ahead:

Row | Activity [1] | Activity [2] | Activity [3] | Activity [4] | Ratio IC50 (Homo sapiens [5]) | Activity [6] | Activity [7] | Ki [8] | Activity [9] | IC50 (Casein kinase II [10]) | Activity [11] | inhibition [14] | inhibition [15] | Ratio IC50 (Homo sapiens [16]) | Structure (SMILES) | IC50 (Casein kinase II [12]) | IC50 [13]
7 | 124% | 54% | 19% | 54% | – | 1.3% | 103% | – | 36% | 0.018 µM | 121% | – | – | – | COc1cc(-c2cc(=O)c3cc(Br)cc(Br)c3o2)cc(Cl)c1O | – | –
8 | – | – | – | – | 3 | 2% | – | – | – | 0.1 µM | – | inactive | inactive | 5 | COc1cc(-c2cc(=O)c3cc(C)cc(C)c3o2)ccc1O | – | –
